This note sets out measurements from US20260306460A1, “COMPOSITION FOR REMOVING AND INHIBITING SENESCENT CELLS, AND USES THEREOF” (LIFECEUTIX CO., LTD., priority 2023, published 2026).

Common to all, as to assay type: in vivo, mouse
Assay [1] relates to naturally aged C57BL6J mice. In words: Lipofuscin staining in muscle of naturally aged mice, Example 21-4. The settings on record: untreated aged = 100, LX-5701 360 mg/kg po, LX-2101 20 mg/kg ip, LX-2102 10 mg/kg ip, daily 21 days. On the procedure:
22-month-old female C57BL6J mice (KRIBB Laboratory Animal Resource Center) were acclimated to the experimental environment for one week, after which the aged mice were randomly assigned to experimental and control groups. Eight-week-old, non-aged mice served as controls. LX-403 was mixed in a 10% ethanol solution of PEG400 and administered orally at a concentration of 25 mg/kg daily for 21 days, or administered to the skin, joints, or eyes at a concentration of 1 μM. LX-1801 was mixed in distilled water with 4% DMSO, 30% PEG300, and 5% Tween80 and administered to the skin, joints, or eyes at a concentration of 0.4 μM daily for 21 days. LX-2001 was mixed in PBS and administered to the skin, joints, or eyes at a concentration of […] daily for 21 days. LX-2002 was mixed in distilled water with 4% DMSO, 30% PEG300, and 5% Tween80 and administered to the skin, joints, or eyes at a concentration of 2 μM daily for 21 days. […] LX-2005 was mixed in distilled water with 4% DMSO, 30% PEG300, and 5% Tween80 and administered to the skin, joints, or eyes at a concentration of 90 μM daily for 21 days. LX-2007 was mixed in distilled water with 4% DMSO, 30% PEG300, and 5% Tween80 and administered to the skin, joints, or eyes at a concentration of 90 μM daily for 21 days. […] LX-3002 was mixed in distilled water with 4% DMSO, 30% PEG300, and 5% Tween80 and administered orally at a concentration of 10 mg/kg daily for 21 days. […] LX-5411 was mixed in 5% PBS and administered orally at a concentration of 10 mg/kg daily for 21 days or administered to the skin, joints, or eyes at a concentration of 3 μM. LX-5701 was mixed in PBS and administered orally at a concentration of 360 mg/kg daily for 21 days. LX-6807 was mixed in saline and administered intraperitoneally at a concentration of 1 mg/kg daily for 21 days. LX-2101 or LX-2102 was mixed in PBS solution with 5% DMSO and administered intraperitoneally at a concentration of 20 mg/kg or 10 mg/kg, respectively, daily for 21 days. […]
Mice were sacrificed and evaluated using the same method as in Example 7-4 of WO2023-085787 A1. […]

The subject of assay [2] is naturally aged C57BL6J mice. In words: Osteoclast marker mRNA (Ctsk, Ocstamp, Oscar, Rank, Trap) in femur of naturally aged mice, Example 21-14, Table 29. To be noted: left femur, untreated aged = 100%. On the procedure:
22-month-old female C57BL6J mice (KRIBB Laboratory Animal Resource Center) were acclimated to the experimental environment for one week, after which the aged mice were randomly assigned to experimental and control groups. Eight-week-old, non-aged mice served as controls. LX-403 was mixed in a 10% ethanol solution of PEG400 and administered orally at a concentration of 25 mg/kg daily for 21 days, or administered to the skin, joints, or eyes at a concentration of 1 μM. LX-1801 was mixed in distilled water with 4% DMSO, 30% PEG300, and 5% Tween80 and administered to the skin, joints, or eyes at a concentration of 0.4 μM daily for 21 days. LX-2001 was mixed in PBS and administered to the skin, joints, or eyes at a concentration of […] daily for 21 days. LX-2002 was mixed in distilled water with 4% DMSO, 30% PEG300, and 5% Tween80 and administered to the skin, joints, or eyes at a concentration of 2 μM daily for 21 days. […] LX-2005 was mixed in distilled water with 4% DMSO, 30% PEG300, and 5% Tween80 and administered to the skin, joints, or eyes at a concentration of 90 μM daily for 21 days. LX-2007 was mixed in distilled water with 4% DMSO, 30% PEG300, and 5% Tween80 and administered to the skin, joints, or eyes at a concentration of 90 μM daily for 21 days. […] LX-3002 was mixed in distilled water with 4% DMSO, 30% PEG300, and 5% Tween80 and administered orally at a concentration of 10 mg/kg daily for 21 days. […] LX-5411 was mixed in 5% PBS and administered orally at a concentration of 10 mg/kg daily for 21 days or administered to the skin, joints, or eyes at a concentration of 3 μM. LX-5701 was mixed in PBS and administered orally at a concentration of 360 mg/kg daily for 21 days. LX-6807 was mixed in saline and administered intraperitoneally at a concentration of 1 mg/kg daily for 21 days. LX-2101 or LX-2102 was mixed in PBS solution with 5% DMSO and administered intraperitoneally at a concentration of 20 mg/kg or 10 mg/kg, respectively, daily for 21 days. The control group received only the solution in the same volume. After the end of drug administration, the methods described in each example below were performed.
Senile osteoporosis is a metabolic bone disease characterized by decreased bone density and a high fracture risk. It occurs in both men and women with aging. The accumulation of senescent cells is known to contribute to osteoporosis by increasing bone resorption by osteoclasts and decreasing bone formation by osteoblasts through the senescence-associated secretory factor (SASP). RNA was extracted from the left femur of mice as described in Example 7-2 WO2023-085787 A1, and qRT-PCR was performed using the synthesized cDNA. […] The amount of each factor after aging was induced was calculated as 100% and compared with the amount of each factor after treatment with the test compound.

In a further assay the test system is C57BL6-ApoE−/− mice. In words: Atherosclerosis in ApoE-/- mice (p16 mRNA, vascular plaque), Example 27, Table 51. The settings on record: high-fat diet ApoE−/− mice; for p16 mRNA: aortic arch of thoracic aorta, untreated 100%; for Plaque number: thoracic aorta, Oil Red O, untreated 21.4 (±5.7). How it is done: Fifteen-week-old male C57BL6-ApoE^−/−-mice (SLC) with atherosclerosis induced by a high-fat diet in the same manner as in Example 9-1 of WO2023-085787 A1 were acclimated to the experimental environment for one week and then randomly assigned to experimental and control groups. […] The control group was administered only the solution in the same volume. After the drug administration was terminated, the mice were sacrificed, and RNA was extracted from the aortic arch of the thoracic aorta using the same method as Example 7-2 of WO2023-085787 A1, and qRT-PCR was performed using the synthesized cDNA. In addition, the remaining part of the thoracic aorta was dissected, fixed flat in 4% paraformaldehyde at room temperature for 12 hours, and the vascular plaque was stained with Oil Red O using the same method as Example 23-5. […] The mRNA amount after aging was induced was calculated as 100% and compared with the mRNA amount of p16 after treatment with the test compound.

The test system of assay [3] is carbon tetrachloride-induced liver fibrosis mice. In words: Carbon tetrachloride-induced liver fibrosis mice, Example 31, Table 57. To be noted: CCl4-induced liver fibrosis mice, untreated = 100%. In a few lines:
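Mice with induced hepatic fibrosis received either the test compound or, as controls, an equal volume of vehicle solution alone. Once dosing ended, liver tissue was harvested and total RNA was isolated. cDNA was synthesized from this RNA, and quantitative RT-PCR was run on it to measure hepatic mRNA levels of the fibrosis- and senescence-related genes.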

Take `CC1(C)CC[C@]2(NC(=O)C(C)(F)F)CC[C@]3(C)[C@H](C(=O)C=C4[C@@]5(C)C=C(C#N)C(=O)C(C)(C)[C@@H]5CC[C@]43C)[C@@H]2C1` [LX-2101, Omaveloxolone]: the “Lipofuscin (staining area)” value in assay [1] was 64 (±11.6) %. Also, in assay [2], the “Ctsk mRNA (%)” value is reported as 61 (±12.1) %, the “Ocstamp mRNA (%)” value was 69 (±10.3) %, the “Oscar mRNA (%)” value is on record as 79 (±5.6) % and the “Rank mRNA (%)” value is recorded as 75 (±2.7) %. Also, in assay [2], the “Trap mRNA (%)” value is 50 (±14.2) %.
For the compound `CCCC\C=C/C=C/C=C\CCCCCCCC(=O)O` [LX-2707, Punicic acid], in the assay on C57BL6-ApoE−/− mice, the “p16 mRNA” value is 81 (±6.0) % and the Plaque number was 19.4 (±3.6). In addition, in assay [2], the “Ctsk mRNA (%)” value was 64 (±8.6) %, the “Ocstamp mRNA (%)” value is given as 73 (±3.2) %, the “Oscar mRNA (%)” value is 54 (±3.4) % and the “Rank mRNA (%)” value is reported as 67 (±3.4) %. Further, the “Trap mRNA (%)” value in assay [2] is on record as 51 (±5.2) %.
For the compound `C[C@@H]1CC[C@@]23C[C@H](O)C(=O)[C@@]2(O)[C@]1(C)[C@H](OC(=O)CCl)C[C@@H](C1=CCn2c(=O)n(-c4ccccc4)c(=O)n2C1)[C@@H]3C` [LX-1801, (2S,3aS,4S,5R,7R,8S,8aS,11R)-7-(1,3-Dioxo-2-phenyl-2,3,5,8-tetrahydro-1H-[1,2,4]triazolo[1,2-a]pyridazin-6-yl)-2,3a-dihydroxy-4,8,11-trimethyl-3-oxooctahydro-1H-4,8a-propanoazulen-5-yl 2-Chloroacetate], in assay [3], the “Liver p16 mRNA” value was 55 (±9.8) % and the “Col1a1 mRNA” value is 58 (±7.9) %.
In the same order, the values of `C#CC(=O)N1[C@@H](CCCC)Cc2cc(OC)ccc2[C@@H]1c1ccc(NC23CC4CC(CC(C4)C2)C3)cc1` [LX-5411] are 53 (±9.9) % and 43 (±16.1) %.
As to `O=C1C2CCN(CC2)C1CNC(=O)C(F)(F)F` (stereo not shown) [LX-5701], in assay [1], the “Lipofuscin (staining area)” value is 69 (±10.8) %. In addition, in the assay with C57BL6-ApoE−/− mice, the “p16 mRNA” value was 71 (±12.8) % and the Plaque number was 12.7 (±4.6). In assay [2], the “Ctsk mRNA (%)” value is given as 57 (±13.0) %, the “Ocstamp mRNA (%)” value is 70 (±6.7) %, the “Oscar mRNA (%)” value is on record as 72 (±7.2) % and the “Rank mRNA (%)” value is 68 (±10.4) %. In assay [2], the “Trap mRNA (%)” value is listed as 63 (±18.4) %.
As to `COC(=O)[C@H]1Cc2c([nH]c3ccccc23)[C@H](c2ccc(S(C)(=O)=O)cc2)N1C(=O)CCl` [LX-5401, methyl (1S,3R)-2-(2-chloroacetyl)-1-(4-(methylsulfonyl)phenyl)-2,3,4,9-tetrahydro-1H-pyrido[3,4-b]indole-3-carboxylate], in assay [3], the “Liver p16 mRNA” value is 61 (±13.2) % and the “Col1a1 mRNA” value is reported as 72 (±5.9) %.
In the same order, the values of `O=C(C(C[N+](=O)[O-])=NO)N1CCN(C(c2ccc(Cl)cc2)c2ccc(Cl)cc2)CC1` [LX-403] are 51 (±3.8) % and 48 (±5.8) %.
The matching figures for `S=C(N/N=C1\CCCc2cccnc21)N1CCN(c2ccccn2)CC1` [LX-801]: 57 (±9.3) % and 63 (±11.5) %.
For the compound Tocofersolan [LX-3001], in the assay on C57BL6-ApoE−/− mice, the “p16 mRNA” value is reported as 78 (±7.2) % and the Plaque number is given as 17.5 (±4.2). In assay [2], the “Ctsk mRNA (%)” value is given as 67 (±7.2) %, the “Ocstamp mRNA (%)” value is 75 (±3.3) %, the “Oscar mRNA (%)” value was 61 (±4.7) % and the “Rank mRNA (%)” value is 56 (±6.3) %. In assay [2], the “Trap mRNA (%)” value was 78 (±6.8) %.
For `COC(=O)[C@]12CCC(C)(C)C[C@H]1[C@H]1C(=O)C=C3[C@@]4(C)C=C(C#N)C(=O)C(C)(C)[C@@H]4CC[C@@]3(C)[C@]1(C)CC2` [LX-2102, Bardoxolone methyl], the “Lipofuscin (staining area)” value in assay [1] is 71 (±8.1) %.
As to `Cc1cccc([C@H](C)c2cnc[nH]2)c1C` [LX-6807, Dexmedetomidine], in the assay with C57BL6-ApoE−/− mice, the “p16 mRNA” value is 59 (±4.7) % and the Plaque number is recorded as 15.3 (±2.4). Also, in assay [2], the “Ctsk mRNA (%)” value was 42 (±2.7) %, the “Ocstamp mRNA (%)” value is 53 (±5.1) %, the “Oscar mRNA (%)” value is listed as 37 (±2.0) % and the “Rank mRNA (%)” value is 57 (±3.9) %. Moreover, the “Trap mRNA (%)” value in assay [2] is given as 48 (±2.1) %.
